Test results published in ChEMBL document CHEMBL5528022, “Discovery of a brain-permeable bromodomain and extra terminal domain (BET) inhibitor with selectivity for BD1 for the treatment of multiple sclerosis” (Eur J Med Chem, 2024).
pIC50, pKd: −log10 of the molar value. Values after ≈ are worked out from the molar mass of the structure shown. Each block holds one compound with its values, some of them ahead of it. Active and inactive are the calls of the source. The calls are words filed in the database; no cut-off is given here.

Legend:
[1] = target: T1, Bromodomain-containing protein 4 (Homo sapiens, UniProt O60885); assay: Binding affinity to BRD4 BD1 (unknown origin) expressed in Escherichia coli BL21 (DE3) at 1:1 protein:compound ratio by MST assay
[2] = target: T1, Bromodomain-containing protein 4; assay: Binding affinity to BRD4 BD2 (unknown origin) expressed in Escherichia coli BL21 (DE3) at 1:1 protein:compound ratio by MST assay
[3] = Selectivity ratio of Kd for binding affinity to BRD4 BD2 (unknown origin) by MST assay to Kd for binding affinity to BRD4 BD1 (unknown origin) by MST assay
[4] = target: T1, Bromodomain-containing protein 4; assay: Binding affinity to BRD4 BD1 (unknown origin) expressed in Escherichia coli BL21 (DE3) by ITC assay
[5] = target: T1, Bromodomain-containing protein 4; assay: Binding affinity to BRD4 BD2 (unknown origin) expressed in Escherichia coli BL21 (DE3) by ITC assay
[6] = Selectivity ratio of Kd for binding affinity to BRD4 BD2 (unknown origin) by ITC assay to Kd for binding affinity to BRD4 BD1 (unknown origin) by ITC assay
[7] = target: T1, Bromodomain-containing protein 4; assay: Binding affinity to BRD4 BD1 (unknown origin) assessed as change in enthalpy by ITC method
[8] = target: T1, Bromodomain-containing protein 4; assay: Binding affinity to BRD4 BD1 (unknown origin) assessed as change in entropy by ITC method
[9] = target: T1, Bromodomain-containing protein 4; assay: Binding affinity to BRD4 BD1 (unknown origin) assessed as change in gibbs free energy by ITC method
[10] = target: T1, Bromodomain-containing protein 4; assay: Inhibition of BRD4 BD1 (unknown origin) incubated for 15 mins by HTRF method
[11] = target: T1, Bromodomain-containing protein 4; assay: Inhibition of BRD4 BD2 (unknown origin) incubated for 15 mins by HTRF method
[12] = target: T2, Bromodomain-containing protein 3 (Homo sapiens, UniProt Q15059); assay: Inhibition of BRD3 BD1 (unknown origin) incubated for 15 mins by HTRF method
[13] = target: T2, Bromodomain-containing protein 3; assay: Inhibition of BRD3 BD2 (unknown origin) incubated for 15 mins by HTRF method
[14] = target: T3, Bromodomain-containing protein 2 (Homo sapiens, UniProt P25440); assay: Inhibition of BRD2 BD1 (unknown origin) incubated for 15 mins by HTRF method
[15] = target: T3, Bromodomain-containing protein 2; assay: Inhibition of BRD2 BD2 (unknown origin) incubated for 15 mins by HTRF method
[16] = target: T4, Bromodomain testis-specific protein (Homo sapiens, UniProt Q58F21); assay: Inhibition of BRDT BD1 (unknown origin) incubated for 15 mins by HTRF method
[17] = target: T4, Bromodomain testis-specific protein; assay: Inhibition of BRDT BD2 (unknown origin) incubated for 15 mins by HTRF method
[18] = Selectivity ratio of IC50 for inhibition of BRD4 BD2 (unknown origin) to IC50 for inhibition of BRD4 BD1 (unknown origin)
[19] = Selectivity ratio of IC50 for inhibition of BRD3 BD2 (unknown origin) to IC50 for inhibition of BRD3 BD1 (unknown origin)
[20] = Selectivity ratio of IC50 for inhibition of BRD2 BD2 (unknown origin) to IC50 for inhibition of BRD2 BD1 (unknown origin)
[21] = Selectivity ratio of IC50 for inhibition of BRDT BD2 (unknown origin) to IC50 for inhibition of BRDT BD1 (unknown origin)
Microglia = assay: Antiinflammatory activity against LPS induced neonatal rat cerebral cortex microglia by immunofluorescence assay; type: functional, cell-based
[22] = Solubility in water by HPLC analysis; type: physicochemical
[23] = Stability in rat liver microsomes assessed as half life; type: ADME, Microsome
[24] = Stability in rat liver microsomes assessed as intrinsic clearance; type: ADME, Microsome; details: read-out: CLH
[25] = Lipophilicity, logD of compound at pH 7.4 by LC-MS/MS based shake bottle method; type: physicochemical; details: buffer
[26] = Unbound drug level in ICR mouse brain incubated for 5 hrs by equilibrium dialysis method; type: ADME, tissue-based
[27] = Free maximum concentration of drug in ICR mouse brain; type: ADME, tissue-based
[28] = Cmax in Sprague-Dawley rat at 5 mg/kg, iv measured upto 25 hrs by LC-MS/MS analysis; type: ADME, organism-based; details: in vivo
[29] = Half life in Sprague-Dawley rat at 5 mg/kg, iv measured upto 25 hrs by LC-MS/MS analysis; type: ADME, organism-based; details: in vivo
[30] = Mean residence time in Sprague-Dawley rat at 5 mg/kg, iv measured upto 25 hrs by LC-MS/MS analysis; type: ADME, organism-based; details: in vivo
[31] = Cmax in Sprague-Dawley rat at 25 mg/kg, ip measured upto 25 hrs by LC-MS/MS analysis; type: ADME, organism-based; details: in vivo
[32] = Tmax in Sprague-Dawley rat at 25 mg/kg, ip measured upto 25 hrs by LC-MS/MS analysis; type: ADME, organism-based; details: in vivo
[33] = Half life in Sprague-Dawley rat at 25 mg/kg, ip measured upto 25 hrs by LC-MS/MS analysis; type: ADME, organism-based; details: in vivo
[34] = Mean residence time in Sprague-Dawley rat at 25 mg/kg, ip measured upto 25 hrs by LC-MS/MS analysis; type: ADME, organism-based; details: in vivo
[35] = Bioavailability in Sprague-Dawley rat at 25 mg/kg, ip measured upto 25 hrs by LC-MS/MS analysis; type: ADME, organism-based; details: in vivo
[36] = Cmax in Sprague-Dawley rat at 25 mg/kg, po measured upto 25 hrs by LC-MS/MS analysis; type: ADME, organism-based; details: in vivo
[37] = Tmax in Sprague-Dawley rat at 25 mg/kg, po measured upto 25 hrs by LC-MS/MS analysis; type: ADME, organism-based; details: in vivo
[38] = Half life in Sprague-Dawley rat at 25 mg/kg, po measured upto 25 hrs by LC-MS/MS analysis; type: ADME, organism-based; details: in vivo
[39] = Mean residence time in Sprague-Dawley rat at 25 mg/kg, po measured upto 25 hrs by LC-MS/MS analysis; type: ADME, organism-based; details: in vivo
[40] = Oral bioavailability in Sprague-Dawley rat at 25 mg/kg measured upto 25 hrs by LC-MS/MS analysis; type: ADME, organism-based; details: in vivo
[41] = Cmax in C57BL/6 mouse blood at 5 mg/kg, iv measured upto 25 hrs by LC-MS/MS analysis; type: ADME, organism-based
[42] = Cmax in C57BL/6 mouse brain at 5 mg/kg, iv measured upto 25 hrs by LC-MS/MS analysis; type: ADME, organism-based
[43] = Cmax in C57BL/6 mouse spinal cord at 5 mg/kg, iv measured upto 25 hrs by LC-MS/MS analysis; type: ADME, organism-based
[44] = Tmax in C57BL/6 mouse brain at 5 mg/kg, iv measured upto 25 hrs by LC-MS/MS analysis; type: ADME, organism-based
[45] = Tmax in C57BL/6 mouse spinal cord at 5 mg/kg, iv measured upto 25 hrs by LC-MS/MS analysis; type: ADME, organism-based
Mus musculus [46] = assay: (§1) Anti-inflammatory activity in complete Freund's adjuvant/MOG (35 to 55 residues)/pertussis toxin-induced experimental autoimmune encephalomyelitis C57BL/6 mouse model assessed as reduction in clinical scores at 30 to 60 mg/kg, ip qd administered 6 days post immunization and measured every 3 days for 28 days post immunization; type: functional, organism-based; details: dose 30-60 mg/kg, time 22.0 day
Mus musculus [47] = assay: as §1, with “change” for “reduction”, “cumulative” for “clinical”; type: functional, organism-based; details: dose 30-60 mg/kg, time 22.0 day
[48] = Toxicity in C57BL/6 mouse model of experimental autoimmune encephalomyelitis assessed as body weight loss at 30 to 60 mg/kg, ip administered 6 days post immunization and measured every 3 days for 28 days post immunization; type: organism-based; details: in vivo, 528 h, dose 30-60 mg/kg, time 22 day
[49] = Toxicity in C57BL/6 mouse model of experimental autoimmune encephalomyelitis assessed as animal death at 30 to 60 mg/kg, ip administered 6 days post immunization and measured every 3 days for 28 days post immunization; type: organism-based; details: in vivo, 144 h, dose 30-60 mg/kg, time 6 day
Mus musculus [50] = assay: as §1, with “TNF-alpha level” for “clinical scores”; type: functional, organism-based; details: dose 30-60 mg/kg, time 22.0 day
Mus musculus [51] = assay: as §1, with “IL-6 level” for “clinical scores”; type: functional, organism-based; details: dose 30-60 mg/kg, time 22.0 day
Mus musculus [52] = assay: (§2) Anti-inflammatory activity in complete Freund's adjuvant/MOG (35 to 55 residues)/pertussis toxin-induced experimental autoimmune encephalomyelitis C57BL/6 mouse model assessed as appearance of normal myelin structure at 30 to 60 mg/kg, ip qd administered 6 days post immunization and measured every 3 days for 28 days post immunization by Luxol fast blue staining based bright field fluorescence microscopic analysis; type: functional, organism-based; details: dose 30-60 mg/kg, time 22.0 day
Mus musculus [53] = assay: as §2, with “as” for “as appearance of normal”, “density” for “structure”, “at” for “at 30 to”; type: functional, organism-based; details: time 22.0 day
[54] = target: T1, Bromodomain-containing protein 4; assay: Binding affinity to BRD4 BD2 (unknown origin) assessed as change in enthalpy by ITC method
[55] = target: T1, Bromodomain-containing protein 4; assay: Binding affinity to BRD4 BD2 (unknown origin) assessed as change in entropy by ITC method
[56] = target: T1, Bromodomain-containing protein 4; assay: Binding affinity to BRD4 BD2 (unknown origin) assessed as change in gibbs free energy by ITC method

T3 sequence (P25440 whole entry): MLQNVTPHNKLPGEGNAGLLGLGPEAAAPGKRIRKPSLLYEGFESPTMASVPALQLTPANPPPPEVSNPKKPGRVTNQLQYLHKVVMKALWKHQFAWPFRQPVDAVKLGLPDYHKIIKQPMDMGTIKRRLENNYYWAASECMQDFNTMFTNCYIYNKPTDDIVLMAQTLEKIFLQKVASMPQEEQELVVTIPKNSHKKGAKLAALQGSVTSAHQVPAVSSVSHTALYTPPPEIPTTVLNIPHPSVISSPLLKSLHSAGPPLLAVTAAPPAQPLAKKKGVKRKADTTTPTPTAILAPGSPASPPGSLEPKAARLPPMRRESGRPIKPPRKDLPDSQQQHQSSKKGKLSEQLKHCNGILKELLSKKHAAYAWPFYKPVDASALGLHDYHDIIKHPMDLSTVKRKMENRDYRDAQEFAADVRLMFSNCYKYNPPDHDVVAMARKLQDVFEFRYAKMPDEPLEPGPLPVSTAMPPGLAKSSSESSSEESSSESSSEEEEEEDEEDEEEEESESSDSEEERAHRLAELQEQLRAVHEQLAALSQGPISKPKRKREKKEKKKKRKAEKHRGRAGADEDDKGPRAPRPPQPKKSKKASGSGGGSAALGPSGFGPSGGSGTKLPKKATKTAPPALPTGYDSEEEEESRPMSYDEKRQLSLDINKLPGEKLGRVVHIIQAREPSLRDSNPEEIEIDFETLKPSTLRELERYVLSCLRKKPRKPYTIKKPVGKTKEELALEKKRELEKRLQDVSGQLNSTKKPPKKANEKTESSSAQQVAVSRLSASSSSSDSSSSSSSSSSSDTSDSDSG
T2 sequence (Q15059 whole entry): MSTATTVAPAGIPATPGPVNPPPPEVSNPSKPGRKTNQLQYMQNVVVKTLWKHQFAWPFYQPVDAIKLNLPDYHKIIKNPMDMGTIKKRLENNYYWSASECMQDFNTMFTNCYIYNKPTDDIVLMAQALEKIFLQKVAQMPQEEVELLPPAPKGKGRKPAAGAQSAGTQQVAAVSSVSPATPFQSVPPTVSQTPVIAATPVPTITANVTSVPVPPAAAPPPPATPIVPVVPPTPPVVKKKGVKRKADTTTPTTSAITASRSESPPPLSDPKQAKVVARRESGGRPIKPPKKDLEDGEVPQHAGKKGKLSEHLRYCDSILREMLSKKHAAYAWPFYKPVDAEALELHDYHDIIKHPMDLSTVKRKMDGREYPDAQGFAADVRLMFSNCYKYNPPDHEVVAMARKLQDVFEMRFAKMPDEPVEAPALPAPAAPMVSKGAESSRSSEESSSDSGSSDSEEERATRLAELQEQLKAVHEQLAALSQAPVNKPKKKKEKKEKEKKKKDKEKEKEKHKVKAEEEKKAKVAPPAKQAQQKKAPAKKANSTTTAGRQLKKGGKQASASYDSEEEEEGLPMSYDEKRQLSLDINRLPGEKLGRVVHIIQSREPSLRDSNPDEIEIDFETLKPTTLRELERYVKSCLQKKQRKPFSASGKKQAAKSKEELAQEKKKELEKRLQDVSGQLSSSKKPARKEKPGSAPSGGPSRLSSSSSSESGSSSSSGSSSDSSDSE

pKd [1]: 6.52
pKd [2]: 5.03
Selectivity ratio [3]: 30
SMILES: Cc1nn(CC2CCCCC2)c(C)c1-c1cncc(-c2ccnc3nc[nH]c23)c1

SMILES: Cc1nn(CC2CC2)c(C)c1-c1cncc(-c2ccnc3nc[nH]c23)c1
pKd [1]: 6.64
pKd [2]: 4.85
Selectivity ratio [3]: 60
pKd [4]: 6.27
pKd [5]: 4.68
Selectivity ratio [6]: 38
deltaH [7]: -15.6 kcal/mol
TdeltaS [8]: 7.1 kcal/mol
deltaG [9]: -8.55 kcal/mol
pIC50 [10]: 6.75
pIC50 [11]: 5.32
pIC50 [12]: 6.74
pIC50 [13]: 5.71
pIC50 [14]: 6.30
pIC50 [15]: 5.68
pIC50 [16]: 5.32
pIC50 [17]: 5.52
Ratio IC50 [18]: 28
Ratio IC50 [19]: 11
Ratio IC50 [20]: 4
Ratio IC50 [21]: 0.6
Activity (Microglia): Active
solubility [22]: 760 µg/mL (≈ 2210 µM)
half-life [23]: 3.7 h
microsomal CLint [24]: 3.2 µL/min/mg
logD [25]: 2.31
fraction unbound at 5 h [26]: 0.979
fCmax [27]: 170 nM
Cmax [28]: 17.2 µM
half-life [29]: 3.56 h
MRT [30]: 4.46 h
Cmax [31]: 89.4 µM
Tmax [32]: 1 h
half-life [33]: 3.53 h
MRT [34]: 1.74 h
bioavailability [35]: 121%
Cmax [36]: 7.15 µM
Tmax [37]: 0.25 h
half-life [38]: 6.31 h
MRT [39]: 8.93 h
bioavailability [40]: 22%
Cmax [41]: 17.2 µM
Cmax [42]: 7.91 µM
Cmax [43]: 3 µM
Tmax [44]: 1 h
Tmax [45]: 1 h
Activity (Mus musculus [46]): Active
Activity (Mus musculus [47]): Active
Activity [48]: Non-Toxic
Activity [49]: Non-Toxic
Activity (Mus musculus [50]): Active
Activity (Mus musculus [51]): Active
Activity (Mus musculus [52]): Active
Activity (Mus musculus [53]): Active
deltaH [54]: -5.84 kcal/mol
TdeltaS [55]: -0.533 kcal/mol
deltaG [56]: -6.37 kcal/mol

pKd [1]: 6.21
pKd [2]: 4.52
Selectivity ratio [3]: 48
SMILES: Cc1nn(C)c(C)c1-c1cncc(-c2ccnc3nc[nH]c23)c1
